According to PubChem BioAssay (NCI):
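Exposure lasted 48 hours, with cells grown in 96-well plates and compounds tested at five concentrations. TGI denotes the concentration required for complete inhibition of growth.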

Tests used:
Assay in all cases: NCI anticancer screen, dose series, 48 h
[1] = tested on: 786-0 renal
[2] = tested on: A498 renal
[3] = tested on: A549 NSCLC
[4] = tested on: ACHN renal
[5] = tested on: CAKI-1 renal
[6] = tested on: CCRF-CEM leukemia
[7] = tested on: COLO 205 colon
[8] = tested on: DLD-1 colon
[9] = tested on: DMS 114 small cell lung
[10] = tested on: EKVX NSCLC
[11] = tested on: HCC-2998 colon
[12] = tested on: HCT-116 colon
[13] = tested on: HCT-15 colon
[14] = tested on: HL-60(TB) leukemia
[15] = tested on: HOP-62 NSCLC
[16] = tested on: HOP-92 NSCLC
[17] = tested on: IGROV1 ovarian
[18] = tested on: K-562 leukemia
[19] = tested on: KM12 colon
[20] = tested on: KM20L2 colon
[21] = tested on: LOX IMVI melanoma
[22] = tested on: LXFL 529 NSCLC
[23] = tested on: M14 melanoma
[24] = tested on: M19-MEL melanoma
[25] = tested on: MALME-3M melanoma
[26] = tested on: MOLT-4 leukemia
[27] = tested on: NCI-H460 lung
[28] = tested on: OVCAR-3 ovarian
[29] = tested on: OVCAR-4 ovarian
[30] = tested on: OVCAR-5 ovarian
[31] = tested on: OVCAR-8 ovarian
[32] = tested on: RPMI-8226 leukemia
[33] = tested on: RXF-631 renal
[34] = tested on: SF-295 CNS
[35] = tested on: SF-539 CNS
[36] = tested on: SK-MEL-2 melanoma
[37] = tested on: SK-MEL-5 melanoma
[38] = tested on: SK-OV-3 ovarian
[39] = tested on: SNB-19 CNS
[40] = tested on: SNB-78 CNS
[41] = tested on: SW-620 colon
[42] = tested on: TK-10 renal
[43] = tested on: U251 CNS
[44] = tested on: UACC-257 melanoma
[45] = tested on: UACC-62 melanoma
[46] = tested on: UO-31 renal
[47] = tested on: HT29 colon
[48] = tested on: NCI-H226 lung
[49] = tested on: NCI-H23 lung
[50] = tested on: NCI-H522 lung
[51] = tested on: RXF 393 renal
[52] = tested on: SF-268 CNS
[53] = tested on: SK-MEL-28 melanoma
[54] = tested on: SN12C renal
[55] = tested on: SNB-75 CNS
[56] = tested on: SR leukemia
[57] = tested on: XF 498 CNS
[58] = tested on: DMS 273 small cell lung
[59] = tested on: HOP-18 NSCLC

## CC(C)c1ccc(Cc2ccc(C(C)C)c(NC(=O)C(=O)Cc3cnc4ccccc4n3)c2C(C)C)c(C(C)C)c1NC(=O)C(=O)Cc1cnc2ccccc2n1
[1]
  TGI: > 100 µM
[2]
  TGI: > 100 µM
[3]
  TGI: > 100 µM
[4]
  TGI: > 100 µM
[5]
  TGI: > 100 µM
[6]
  TGI: > 100 µM
[7]
  TGI: > 100 µM
[8]
  TGI: > 100 µM
[9]
  TGI: > 100 µM
[10]
  TGI: > 100 µM
[11]
  TGI: > 100 µM
[12]
  TGI: > 100 µM
[13]
  TGI: > 100 µM
[14]
  TGI: > 100 µM
[15]
  TGI: > 100 µM
[16]
  TGI: 91.8 µM
[17]
  TGI: > 100 µM
[18]
  TGI: > 100 µM
[19]
  TGI: > 100 µM
[20]
  TGI: > 100 µM
[21]
  TGI: > 100 µM
[22]
  TGI: > 100 µM
[23]
  TGI: > 100 µM
[24]
  TGI: > 100 µM
[25]
  TGI: > 100 µM
[26]
  TGI: > 100 µM
[27]
  TGI: > 100 µM
[28]
  TGI: > 100 µM
[29]
  TGI: > 100 µM
[30]
  TGI: > 100 µM
[31]
  TGI: > 100 µM
[32]
  TGI: > 100 µM
[33]
  TGI: > 100 µM
[34]
  TGI: > 100 µM
[35]
  TGI: > 100 µM
[36]
  TGI: > 100 µM
[37]
  TGI: > 100 µM
[38]
  TGI: > 100 µM
[39]
  TGI: > 100 µM
[40]
  TGI: > 100 µM
[41]
  TGI: > 100 µM
[42]
  TGI: > 100 µM
[43]
  TGI: > 100 µM
[44]
  TGI: > 100 µM
[45]
  TGI: > 100 µM
[46]
  TGI: > 100 µM

## O=C1C2C(C(=O)N1Cc1ccccc1)N(Cc1ccccc1)C(=O)N2Cc1ccccc1 (stereo not given)
[1]
  TGI: > 100 µM
[2]
  TGI: > 100 µM
[3]
  TGI: > 100 µM
[4]
  TGI: > 100 µM
[5]
  TGI: > 100 µM
[6]
  TGI: > 100 µM
[7]
  TGI: > 100 µM
[8]
  TGI: > 100 µM
[9]
  TGI: > 100 µM
[10]
  TGI: > 100 µM
[11]
  TGI: > 100 µM
[12]
  TGI: > 100 µM
[13]
  TGI: > 100 µM
[14]
  TGI: > 100 µM
[15]
  TGI: > 100 µM
[16]
  TGI: > 100 µM
[47]
  TGI: > 100 µM
[17]
  TGI: > 100 µM
[18]
  TGI: > 100 µM
[19]
  TGI: > 100 µM
[20]
  TGI: > 100 µM
[21]
  TGI: > 100 µM
[22]
  TGI: > 100 µM
[23]
  TGI: > 100 µM
[24]
  TGI: > 100 µM
[25]
  TGI: > 100 µM
[26]
  TGI: > 100 µM
[48]
  TGI: > 100 µM
[49]
  TGI: > 100 µM
[27]
  TGI: > 100 µM
[50]
  TGI: > 100 µM
[28]
  TGI: > 100 µM
[29]
  TGI: > 100 µM
[30]
  TGI: > 100 µM
[31]
  TGI: > 100 µM
[32]
  TGI: > 100 µM
[51]
  TGI: > 100 µM
[33]
  TGI: > 100 µM
[52]
  TGI: > 100 µM
[34]
  TGI: > 100 µM
[35]
  TGI: > 100 µM
[53]
  TGI: > 100 µM
[37]
  TGI: > 100 µM
[38]
  TGI: > 100 µM
[54]
  TGI: > 100 µM
[39]
  TGI: > 100 µM
[55]
  TGI: > 100 µM
[40]
  TGI: > 100 µM
[56]
  TGI: > 100 µM
[41]
  TGI: > 100 µM
[42]
  TGI: > 100 µM
[43]
  TGI: > 100 µM
[44]
  TGI: > 100 µM
[45]
  TGI: > 100 µM
[46]
  TGI: > 100 µM
[57]
  TGI: > 100 µM

## Cc1cccc(C)c1NC(=O)CCCC(=O)C(C#N)c1ccccc1 (stereo not given)
[4]
  TGI: > 100 µM
[5]
  TGI: > 100 µM
[6]
  TGI: > 100 µM
[7]
  TGI: > 100 µM
[8]
  TGI: > 100 µM
[12]
  TGI: > 100 µM
[14]
  TGI: > 100 µM
[16]
  TGI: > 100 µM
[17]
  TGI: > 100 µM
[18]
  TGI: > 100 µM
[22]
  TGI: > 100 µM
[23]
  TGI: > 100 µM
[24]
  TGI: > 100 µM
[26]
  TGI: > 100 µM
[48]
  TGI: > 100 µM
[49]
  TGI: > 100 µM
[50]
  TGI: > 100 µM
[29]
  TGI: > 100 µM
[32]
  TGI: > 100 µM
[51]
  TGI: > 100 µM
[33]
  TGI: > 100 µM
[36]
  TGI: > 100 µM
[53]
  TGI: > 100 µM
[37]
  TGI: > 100 µM
[38]
  TGI: > 100 µM
[55]
  TGI: > 100 µM
[40]
  TGI: > 100 µM
[56]
  TGI: > 100 µM
[41]
  TGI: > 100 µM
[44]
  TGI: > 100 µM
[46]
  TGI: > 100 µM

## CCCCCCCCCC1CC(=O)OC23CCCC(=O)C12O3 (stereo not given)
[1]
  TGI: > 100 µM
[2]
  TGI: > 100 µM
[3]
  TGI: > 100 µM
[4]
  TGI: > 100 µM
[5]
  TGI: > 100 µM
[6]
  TGI: > 100 µM
[7]
  TGI: > 100 µM
[8]
  TGI: > 100 µM
[9]
  TGI: > 100 µM
[58]
  TGI: > 100 µM
[10]
  TGI: > 100 µM
[11]
  TGI: > 100 µM
[12]
  TGI: > 100 µM
[13]
  TGI: > 100 µM
[14]
  TGI: 69.2 µM
[59]
  TGI: > 100 µM
[15]
  TGI: > 100 µM
[16]
  TGI: > 100 µM
[47]
  TGI: > 100 µM
[17]
  TGI: > 100 µM
[18]
  TGI: > 100 µM
[19]
  TGI: > 100 µM
[20]
  TGI: > 100 µM
[21]
  TGI: > 100 µM
[22]
  TGI: > 100 µM
[23]
  TGI: > 100 µM
[24]
  TGI: > 100 µM
[25]
  TGI: > 100 µM
[26]
  TGI: 71.4 µM
[48]
  TGI: > 100 µM
[49]
  TGI: > 100 µM
[27]
  TGI: > 100 µM
[50]
  TGI: > 100 µM
[28]
  TGI: > 100 µM
[29]
  TGI: > 100 µM
[30]
  TGI: > 100 µM
[31]
  TGI: > 100 µM
[32]
  TGI: > 100 µM
[51]
  TGI: > 100 µM
[52]
  TGI: > 100 µM
[34]
  TGI: > 100 µM
[35]
  TGI: > 100 µM
[36]
  TGI: > 100 µM
[53]
  TGI: > 100 µM
[37]
  TGI: > 100 µM
[38]
  TGI: > 100 µM
[54]
  TGI: > 100 µM
[39]
  TGI: > 100 µM
[55]
  TGI: > 100 µM
[40]
  TGI: > 100 µM
[41]
  TGI: > 100 µM
[42]
  TGI: > 100 µM
[43]
  TGI: > 100 µM
[44]
  TGI: > 100 µM
[45]
  TGI: > 100 µM
[46]
  TGI: > 100 µM
[57]
  TGI: > 100 µM
